Results published in PubChem BioAssay AID1259408 (Genetic Toxicology Data Bank (GENE-TOX), 2018).
Calls of active or inactive are those of the source. The rule behind the calls is not given here.

Test system: GENE-TOX genotoxicity assays, various organisms and cells
Assay: GENE-TOX mutagenicity studies
Settings: for call: Assay Type: In vivo carcinogenicity studies
[1] = Species/Cell Type: Human diploid fibroblasts, Assay Type: Unscheduled DNA synthesis (UDS) in vitro, DNA effects, Assay Code: UDH-, Evaluation Type: Evaluation A (Pre-1980)
[2] = Species/Cell Type: Saccharomyces cerevisiae, Assay Type: Mitotic recombination or gene conversion, Assay Code: YEH-, Evaluation Type: Evaluation A (Pre-1980)
[3] = Species/Cell Type: Mouse, Sex: Male, Assay Type: Sperm morphology, Assay Code: SPI-, Evaluation Type: Evaluation A (Pre-1980)
[4] = Species/Cell Type: Salmonella typhimurium, Assay Type: Forward and reverse gene mutation, host-mediated assay, Assay Code: HMA+, Evaluation Type: Evaluation A (Pre-1980)
[5] = Species/Cell Type: Mammalian polychromatic erythrocytes, Assay Type: Micronucleus test, chromosome aberrations, Assay Code: MNTT, Evaluation Type: Evaluation B (Post-1980)
[6] = Species/Cell Type: Salmonella typhimurium (one or more of the five standard strains: TA98, TA100, TA1535, TA1537, and TA1538), Assay Type: Histidine reverse gene mutation, Ames assay, Assay Code: SAL+, Evaluation Type: Evaluation A (Pre-1980)
[7] = Species/Cell Type: Salmonella typhimurium (one or more of the five standard strains: TA98, TA100, TA1535, TA1537, and TA1538), Assay Type: Histidine reverse gene mutation, Ames assay, Assay Code: SALT, Evaluation Type: Evaluation A (Pre-1980)

Structure (SMILES): CC(=O)Nc1ccc2c(c1)Cc1cc(O)ccc1-2
- mutagenic call (Species/Cell Type: Escherichia coli polA (W3110 vs P3478), Assay Type: Rec-assay, DNA effects (bacterial DNA repair), Assay Code: RE2+, Evaluation Type: Evaluation A (Pre-1980)): active; positive
- mutagenic call (Species/Cell Type: Escherichia coli polA (W3119 vs P3478), Assay Type: Rec-assay, DNA effects (bacterial DNA repair), Assay Code: RE1T, Evaluation Type: Evaluation A (Pre-1980)): no conclusion
- mutagenic call [1]: inactive; negative
- mutagenic call (Species/Cell Type: Human, Assay Type: Sister-chromatid exchange (SCE) in vitro, Assay Code: SC1-, Evaluation Type: Evaluation B (Post-1980)): inactive; negative
- mutagenic call [2]: inactive; negative
- mutagenic call (Species/Cell Type: Salmonella typhimurium (one or more of the five standard strains: TA98, TA100, TA1535, TA1537, and TA1538), Assay Type: Histidine reverse gene mutation, Ames assay, Assay Code: SAL+*, Activation: With metabolic activation, Evaluation Type: Evaluation A (Pre-1980)): active; positive
- mutagenic call (Species/Cell Type: Salmonella typhimurium, Assay Type: Forward and reverse gene mutation, host-mediated assay, Assay Code: HMA-, Evaluation Type: Evaluation A (Pre-1980)): inactive; negative

Structure (SMILES): NNC(=O)c1ccncc1
- mutagenic call (Species/Cell Type: Human, Assay Type: Sister-chromatid exchange (SCE) in vitro, Assay Code: SC1+, Evaluation Type: Evaluation B (Post-1980)): active; positive
- mutagenic call (Species/Cell Type: Mammalian germ cells, Sex: Male, Assay Type: Chromosome aberrations in vivo, Assay Code: CY9T, Evaluation Type: Evaluation A (Pre-1980)): no conclusion
- mutagenic call (Species/Cell Type: Mammalian oocytes or early embryo, Assay Type: Chromosome aberrations in vivo, Assay Code: CYO-, Evaluation Type: Evaluation A (Pre-1980)): inactive; negative
- mutagenic call (Species/Cell Type: Mouse, Sex: Female, Assay Type: Spot test, gene mutation, Assay Code: MSTT, Evaluation Type: Evaluation A (Pre-1980)): no conclusion
- mutagenic call [3]: inactive; negative
- call (Species/Cell Type: Nonhuman, Assay Code: CCG+L, Evaluation Type: Evaluation A (Pre-1980)): active; positive
- mutagenic call (Species/Cell Type: Nonhuman, Assay Type: Sister-chromatid exchange (SCE) in vitro, Assay Code: SC2+D, Dose Response: With dose response, Evaluation Type: Evaluation B (Post-1980)): active; positive
- mutagenic call (Species/Cell Type: Nonhuman, Assay Type: Sister-chromatid exchange (SCE) in vivo, Assay Code: SC3T, Evaluation Type: Evaluation B (Post-1980)): no conclusion
- mutagenic call (Species/Cell Type: Rabbit, Sex: Male, Assay Type: Sperm morphology, Assay Code: SPR-, Evaluation Type: Evaluation A (Pre-1980)): inactive; negative
- mutagenic call (Species/Cell Type: Rodents, Sex: Male, Assay Type: Dominant lethal test, Assay Code: DLT-, Evaluation Type: Evaluation A (Pre-1980)): inactive; negative
- mutagenic call (Species/Cell Type: Salmonella typhimurium, Assay Type: Forward and reverse gene mutation, body fluid assay, Assay Code: BFUT, Evaluation Type: Evaluation A (Pre-1980)): no conclusion
- mutagenic call [4]: active; positive

Structure (SMILES): CCCCCCCCCCCCCCCCCCOCC(O)COP(=O)([O-])OCC[N+](C)(C)C (centres undefined)
- mutagenic call [5]: no conclusion

Structure (SMILES): COc1c(Cl)ccc(Cl)c1C(=O)O
- mutagenic call (Species/Cell Type: Bacillus subtilis (H17 vs M45), Assay Type: Rec-assay, spot test, DNA effects (bacterial DNA repair), Assay Code: REW+, Evaluation Type: Evaluation A (Pre-1980)): active; positive
- mutagenic call (Species/Cell Type: Drosophila melanogaster, Assay Type: Sex-linked recessive lethal gene mutation, Assay Code: SRLT, Evaluation Type: Evaluation A (Pre-1980)): no conclusion
- mutagenic call (Species/Cell Type: Escherichia coli polA (W3119 vs P3478), Assay Type: Rec-assay, DNA effects (bacterial DNA repair), Assay Code: RE1+, Evaluation Type: Evaluation A (Pre-1980)): active; positive
- mutagenic call (Species/Cell Type: Hordeum vulgare (barley), Assay Type: Chromosome aberrations, Assay Code: HOC+, Evaluation Type: Evaluation A (Pre-1980)): active; positive
- mutagenic call [1]: inactive; negative
- mutagenic call [2]: inactive; negative
- mutagenic call (Species/Cell Type: Salmonella typhimurium (one or more of the five standard strains: TA98, TA100, TA1535, TA1537, and TA1538), Assay Type: Histidine reverse gene mutation, Ames assay, Assay Code: SAL-, Evaluation Type: Evaluation A (Pre-1980)): inactive; negative

Structure (SMILES): c1ccc2c3c4c(ccc5cccc(c54)[C@H]4O[C@@H]34)cc2c1
- mutagenic call (Species/Cell Type: Chinese hamster lung (V79) cells, Assay Type: Forward gene mutation at the HPRT or ouabain locus, Assay Code: V79+, Evaluation Type: Evaluation A (Pre-1980)): active; positive
- call (Species/Cell Type: Nonhuman, Assay Code: CCGT, Evaluation Type: Evaluation A (Pre-1980)): no conclusion
- mutagenic call [6]: active; positive

Structure (SMILES): [S]=[Mo]=[S]
- mutagenic call (Species/Cell Type: Syrian hamster embryo (SA7/SHE) cells, Assay Type: Cell transformation, viral enhanced, Assay Code: CT7+, Evaluation Type: Evaluation A (Pre-1980)): active; positive

Structure (SMILES): Cc1ccc(C)cc1
- mutagenic call [5]: no conclusion

Structure (SMILES): O=c1[nH]cc(I)c(=O)[nH]1
- mutagenic call (Species/Cell Type: Vicia faba, Assay Type: Chromosome aberrations, Assay Code: VIC+, Evaluation Type: Evaluation A (Pre-1980)): active; positive

Structure (SMILES): Oc1c(Cl)cc(Cl)c2cccnc12
- mutagenic call [7]: no conclusion

Structure (SMILES): CC1CCOS(=O)(=O)O1 (centres undefined)
- mutagenic call [6]: active; positive
- mutagenic call [4]: active; positive

Structure (SMILES): O=[N+]([O-])O.O=[N+]([O-])O.[Cd+2]
- mutagenic call (Species/Cell Type: Nonhuman, Assay Type: Sister-chromatid exchange (SCE) in vitro, Assay Code: SC2-, Evaluation Type: Evaluation B (Post-1980)): inactive; negative

Structure (SMILES): Nc1ccc(I)cc1
- mutagenic call [3]: inactive; negative

Structure (SMILES): O=C=Nc1ccc(Nc2ccc([N+](=O)[O-])cc2)cc1
- mutagenic call [7]: no conclusion

Structure (SMILES): C[CH2][Hg][Cl]
- mutagenic call [5]: no conclusion

Structure (SMILES): FC(F)OC(Cl)C(F)(F)F (centres undefined)
- mutagenic call [3]: inactive; negative
- mutagenic call (Species/Cell Type: Nonhuman, Assay Type: Sister-chromatid exchange (SCE) in vitro, Assay Code: SC2T, Evaluation Type: Evaluation B (Post-1980)): no conclusion
- mutagenic call [7]: no conclusion

Structure (SMILES): C/C=C/c1ccc2c(c1)OCO2
- call (Species/Cell Type: Nonhuman, Assay Code: CCG+, Evaluation Type: Evaluation A (Pre-1980)): active; positive
